What follows are compounds tested on TGFβ1-induced expression of α-SMA protein in human HSC (assay: α-SMA ELISA in TGFβ1-activated human hepatic stellate cells). Conditions: [Cpd] = 3 μM, 1 h preincubation, TGFβ1 1 ng/ml, 48 h.
Type: cell-based
Protocol: Serum-deprived HSC were preincubated for 1 hour with RM-5061 before the activation with the profibrogenic cytokine TGFβ1 (1 ng/ml). After 48 hours of incubation, the α-SMA content was measured by ELISA. The obtained values were transformed into percentage inhibition over TGFβ1 control. Data are presented as mean (quadruplicates)±standard error of the mean (SEM). Statistical analyses were performed by one-way ANOVA followed by Bonferroni post-hoc tests, using Sigma Plot 11.0 software. [*: p<0.05; **: p<0.01; ***: p<0.001 (comparison versus TGFβ1 1 ng/mL group)]. The curve fitting and the calculation of half maximal inhibitory concentration (IC50) were performed with XLFit software 5.3.1.3.
Serum-deprived HSC were preincubated for 1 hour with Cpd.5 before the activation with the profibrogenic cytokine TGFβ1 (1 ng/ml). After 48 hours of incubation, the expression of α-SMA was measured by ELISA. The obtained values were transformed into percentage inhibition over TGFβ1 control. Data are presented as mean (triplicates)±standard deviation (SD). Statistical analyses were performed by one-way ANOVA followed by Bonferroni post-hoc tests, using Sigma Plot 11.0 software. [*: p<0.05; **: p<0.01; ***: p<0.001 (comparison versus TGFμ1 1 ng/mL group)]. The curve fitting and the calculation of half maximal inhibitory concentration (IC50) were performed with XLFit software 5.3.1.3.
The human primary hepatic stellate cells (hHSC) (Innoprot) were cultured in STeCM medium (ScienCell cat #5301) that was supplemented with 2% fetal bovine serum (FBS, ScienCell cat #0010), 1% penicillin/streptomycin (ScienCell cat #0503) and stellate cell growth supplement (SteCGS; ScienCell cat #5352). Cell culture flasks were coated with Poly-L Lysine (Sigma cat #P4707) for a better adherence.
The human primary hepatic stellate cells (hHSC) (Innoprot) were cultured under standard conditions, as described above. The cells were subsequently plated at a density of 2×10^4cells/well or 6,5×10^3 cells/well into 96-well or 384-well plates respectively. The next day, cell-culture medium was removed, and cells were washed with PBS (Invitrogen cat #14190). Then, hHSC were deprived for 24 hours in serum-free and SteCGS-free medium. For the treatments with compounds of formula (I), the serum-deprived hHSC were preincubated for 1 hour with the compounds followed by addition of the profibrogenic stimuli TGFβ1 (PeproTech cat #100-21, 1 ng/mL) in serum-free and SteCGS-free medium for an additional 48 hour period. At the end of treatment, the cell culture supernatants of treated-HSC were transferred into a new plate before storage at −20° C.The cells were washed with PBS (Invitrogen, cat #14190) before the addition of lysis buffer (CelLytic™ MT reagent; Sigma #C3228). Plates were then incubated for 30 min on ice using a plate shaker, before storage at −20° C.
The level of α-SMA was measured using a Sandwich ELISA. Briefly, the wells of an ELISA plate were first coated with the capture antibody (mouse monoclonal anti-ACTA2, Abnova) at 4° C. overnight. After 3 washes in PBS +0.2% Tween 20, a blocking solution consisting of PBS +0.2% BSA was added for one hour followed by another washing cycle. The cell lysates were transferred into the wells for binding to the capture antibody for a period of 2 h at room temperature. After the washing procedure, the detection antibody (biotinylated mouse monoclonal anti-ACTA2, Abnova) was added for 2 hours at room temperature followed by 3 washes. For the detection, an HRP-conjugated Streptavidin (R&D Systems cat #DY998) was first applied for 30 min at room temperature. After washing, the HRP substrate TMB (;BD, #555214) was added and incubated for 7 min at room temperature in the dark. Upon oxidation, TMB forms a water-soluble blue reaction product that becomes yellow with addition of sulfuric acid (solution stop), enabling accurate measurement of the intensity at 450 nm using a spectrophotometer. […]
For `O=C(O)c1ccccc1-c1ccccc1C(=O)Nc1nc2ccccc2s1` [Cpd1, 2′-(benzo[d]thiazol-2-ylcarbamoyl)-[1,1′-biphenyl]-2-carboxylic acid], the “% I over TGFβ (α-SMA)” value was 40%. `COc1ccccc1C(=O)Nc1nc(-c2cccs2)c(NC(=O)c2ccccc2)s1` [Cpd2, N-(5-benzamido-4-(thiophen-2-yl)-1,3-thiazol-2-yl)-2-methoxybenzamide] was tested, and the “% I over TGFβ (α-SMA)” value was 43%. In the case of `Cc1sc(NC(=O)c2c(F)cccc2F)nc1-c1ccccc1` [Cpd3, 2,6-difluoro-N-(5-methyl-4-phenyl-1,3-thiazol-2-yl)benzamide], the “% I over TGFβ (α-SMA)” value is reported as 48%. With `O=C(Nc1nc(-c2ccc3ccccc3c2)cs1)c1cc([N+](=O)[O-])ccc1Cl` [Cpd4, 2-chloro-N-[4-(2-naphthyl)-1,3-thiazol-2-yl]-5-nitrobenzamide] the “% I over TGFβ (α-SMA)” value was 53%.

Source: US20170290814A1, “METHODS OF TREATMENT OF CHOLESTASIS AND FIBROSIS” (GENFIT, priority 2016, published 2017)
